Legend:
rats = conditions: orally or subcutaneously; cited from earlier work
mice = conditions: orally or subcutaneously; cited from earlier work
[1] = Cytotoxicity, MTT assay in 3T3 fibroblasts; type: cell-based, mouse; conditions: mouse
Experimental: (§1) FIG. 9. Cell survival curves as measured by MTT assay for brassinosteroids 1-9 against the murine fibroblast cell line NIH-3T3. Cells were incubated with various concentrations of brassinosteroids (0.3-30 μM) for 24 h at 37° C. The mean absorbance of the control cells represented 100% cell proliferation, and the mean absorbance of treated cells was related to control values to determine sensitivity. Error bars represent standard error (n=6) from mean cell proliferation as determined by repeated experiments.
(§2) In various aspects, cell viability is measured and the effects of doses of compound and test reagents are tested in cell lines. In some aspects, cell viability was measured by the MTT (3-(4,5-Dimethylthiazol-2-yl)-2,5-diphenyltetrazolium bromide) assay in triplicate (Mosmann et al., J. Immunol. Methods 65:55-63, 1983) and quantified spectrophotometrically at 550 nm using a microplate reader (Molecular Devices, Sunnyvale, Calif.).
(§3) 3T3 fibroblasts were seeded in a 96-well flat bottom plate at a density of 1×10^4 cells/well. Cell viability was measured by an MTT (3-(4,5-Dimethylthiazol-2-yl)-2,5-diphenyltetrazolium bromide) assay in triplicate (0.3-30 μM of test substance for […]) essentially as described by Mosmann (J. Immunol. Methods 65, 55-63, 1983) and quantified spectrophotometrically at 550 nm using a microplate reader (Molecular Devices, Sunnyvale, Calif.). […] For cell proliferation studies, cells were treated in triplicate with 0.1-10 μM of test substance for 24 h and assayed using a BrdU (5-bromo-2′-deoxyuridine) kit from Amersham (Uppsala, Sweden).

[2] = system: NIH 3T3 murine fibroblast cell line; experiment: Cytotoxicity, MTT assay in 3T3 fibroblasts; type: cell-based, mouse
Experimental: as §1, §2, §3

L6 rat myotubes [3] = experiment: Protein synthesis, [3H]-phenylalanine incorporation in myotubes; type: cell-based; conditions: 10 μM, 4 h
Experimental: (§4) In some aspects, cell culture experiments were carried out. Rat L6 skeletal muscle cell line CRL-1458 was obtained from ATCC (Manassas, Va.). Myoblasts were routinely maintained in Dulbecco's modified Eagle's medium (DMEM) containing 10% FBS and 0.1% penicillin-streptomycin at 37° C. and 5% CO2. Cells were subcultured into 24-well plates for protein synthesis, degradation, and cell viability studies and into 6-well plates for Western blot analyses (Greiner Bio One, Monroe, N.C.). Once cells reached 90% confluence, differentiation was induced by lowering the serum concentration to 2%, and medium was changed every 2 days. After 7-9 days of culture the myoblasts had fused into multinucleated myotubes (Mandel et al., Nature 251:618-620, 1974). NIH 3T3 murine embryonic fibroblast cell line (ATCC #CCL-92) was maintained in DMEM and 10% FBS at 37° C. in 5% CO2, and passaged every 3-4 days.
In various aspects, protein synthesis is measured to determine the effect of brassinosteroid on a particular protein. All known methods for measuring protein synthesis are included in the methods of the disclosure. In brassinosteroid dose response studies, fully differentiated myotubes were washed with serum-free DMEM and treated in triplicate with vehicle (0.1% ethanol), increasing concentrations of HB, or 6.5 nM of insulin-like growth factor-1 (IGF-1) as a positive control. Compounds were added to serum-free medium containing 0.5 μCi/mL [^3H]-phenylalanine and incubated for 4 h. For the HB time course study, fully differentiated myotubes were treated with 3 μM HB for 1-24 h using the same culture conditions. The incubation was stopped by placing cells on ice, discarding the medium, and washing the cells extensively with ice-cold PBS to remove the non-incorporated radiolabel. Proteins were precipitated with 5% trichloroacetic acid and dissolved in 0.5N NaOH (Montgomery et al., Methods Cell. Sci. 24:123-129, 2002). Specific radioactivity of protein-bound phenylalanine was quantified using liquid scintillation counter LS 6500 (Beckman Coulter, Fullerton, Calif.) and normalized to mg of total protein determined by BCA protein assay (Pierce Biotechnology, Rockford, Ill.).
The bioactivity of HB and its analogs was evaluated by measuring increases in protein synthesis in the L6 rat skeletal muscle cells in vitro. Cells were incubated for 4 h with [^3H]-phenylalanine and treated in triplicate with vehicle (0.1% ethanol) or test compound (10 μM), and protein synthesis was measured as incorporation of [^3H]-phenylalanine into protein normalized by total protein (Table 3). Under these conditions, both HB and (22S,23S)-homocastasterone increased protein synthesis by 37.2±5.9% (p<0.001) and 41.0±2.7% (p<0.001), respectively. This protein synthesis increase compared favorably to the biological activity of IGF-1 at 6.5 nM (42.5±4.5%, p<0.001) that served as a positive control in this assay. Removal of the 2α-hydroxyl group and fluorination at C-3 in the A ring (compound IDs 3-4 in Table 3) led to about a 50% decrease in bioactivity (24.6±5.3%, p<0.01 and 22.5±2.7%, p<0.01, respectively) compared to the positive control. However, there was still an increase in protein synthesis. […] Modifications in the side chain (compound IDs 7-9 in Table 3) abolished the activity.

L6 rat myotubes [4] = experiment: Protein degradation, release of acid-soluble [3H]-phenylalanine; type: cell-based; conditions: 10 μM, 4 h
Experimental: as §4, with “After 7-9 days of culture the myoblasts had fused into multinucleated myotubes (Mandel et al., Nature 251:618-620, 1974).” left out
In various aspects, protein degradation is measured to determine the effect of brassinosteroid on a particular protein. All known methods for measuring protein degradation are included in the methods of the disclosure. The effect of brassinosteroids on protein degradation was investigated in fully differentiated myotubes as described by Fawcett et al. (Arch. Biochem. Biophys. 385:357-363, 2001) with slight modifications. Fully differentiated myotubes were incubated for 16 h to allow labeling of cellular proteins with 1.5 μCi/mL [^3H]-phenylalanine. […] The incubation was stopped by placing the cells on ice, and protein in the medium was precipitated with 5% trichloroacetic acid. Specific radioactivity of protein-free phenylalanine was quantified using liquid scintillation counter LS 6500 (Beckman Coulter, Fullerton, Calif.) and normalized to mg of total cell protein determined by BCA protein assay (Pierce Biotechnology, Rockford, Ill.).
The bioactivity of HB and its analogs (as shown in Table 3) were also evaluated by measuring decreases in protein degradation in the L6 rat skeletal muscle cells in vitro. Cells were labeled overnight with [^3H]-phenylalanine and subsequently treated for 4 h in triplicate with vehicle (0.1% ethanol) or test compound (10 μM), and protein degradation was assessed as release of acid-soluble [^3H]-phenylalanine into the media normalized by total protein (Table 3).

[5] = system: 3T3 Swiss fibroblast monolayers; experiment: Scratch wound closure in vitro; type: cell-based, mouse; conditions: for Scratch wound closure at 5 μM, % of control: 12 h (Table 6)
Experimental: 3T3 fibroblasts were seeded into 24-well dishes at a concentration of 3×10^5 cells/ml and cultured to nearly confluent cell monolayers. On the day of the experiment, a linear wound was generated in the monolayer with a sterile 100 μl plastic pipette tip and any cellular debris was removed by washing cells once with sterile PBS. Fresh DMEM medium containing vehicle (0.1% ethanol), positive control (0.5% FBS), or various concentrations of the fractions, sub-fractions or pure compounds was added to a set of 3 wells per dose and incubated for 12 h at 37° C. with 5% CO2. Cells were then visualized with 20 μl of 10% methylene blue in PBS for 5 min. Three representative images of the scratched areas from each well were photographed at 0 and 12 h to estimate the scratch wound closure. Images were analyzed using ImageJ program (NIH, Bethesda, Md.) and % wound closure was calculated relative to vehicle control and was reported as wound closure % over control (Table 4). 3T3 Swiss fibroblast were seeded into 24-well tissue culture at a concentration of 3×10^5 cells/ml and cultured to nearly confluent cell monolayers. Then, a linear wound was generated in the monolayer with a sterile 100 μl plastic pipette tip. Any cellular debris was removed by washing with PBS. DMEM medium with vehicle (0.1% ethanol), FBS (1%, positive control), or various concentrations of brassinosteroids were added to a set of 3 wells per dose and incubated for 12 h at 37° C. with 5% CO2. Cells were visualized in 10% methylene blue for 5 minutes. Three representative images from each well of the scratched areas under each condition were photographed to estimate the relative migration of cells at 0 and 12 h post-treatment. Data were analyzed using ImageJ software available online from the National Institutes of Health (rsbweb.nih.gov/ij/) by calculating the percentage of scratch closure at each dose point relative to control.

3T3 mouse fibroblasts = experiment: Cell proliferation, BrdU assay; type: cell-based; conditions: 24 h
Experimental: as §3

[6] = system: 3T3 Swiss fibroblast monolayers; conditions: PDGF 2 nM reference treatment, reported previously (Schmidt et al.); cited from earlier work

Compound | Protein synthesis (% increase over control) (L6 rat myotubes [3]) | Protein degradation (% decrease over control) (L6 rat myotubes [4]) | Scratch wound closure at 5 μM, % of control [5] | IC50 [2] | Cell proliferation at 5 μM, % of control (3T3 mouse fibroblasts) | further results
CC(C)[C@@H](C)[C@@H](O)[C@H](O)[C@@H](C)[C@H]1CC[C@H]2[C@@H]3COC(=O)[C@H]4C[C@H](O)[C@H](O)C[C@]4(C)[C@H]3CC[C@]12C [24-Epibrassinolide] |  |  |  |  |  | median lethal dose (LD50) (rats): higher than 2000 mg/kg; median lethal dose (LD50) (mice): higher than 1000 mg/kg
CC[C@@H](C(C)C)[C@H](O)[C@@H](O)[C@@H](C)[C@H]1CC[C@H]2[C@@H]3CC(=O)[C@H]4C[C@H](F)CC[C@]4(C)[C@H]3CC[C@]12C [Compound 4, (22S,23S,24S)-3α-fluoro-22,23-dihydroxy-24-ethyl-5α-cholestan-6-one] | 22.5±2.7% | −16.3 ± 4.2% | 27.7 ± 4.0 % |  |  | IC50 [1]: ~30 µM; cytotoxicity compared to the original brassinosteroids [2]: increased cytotoxicity; Wound Closure (% over control) ([5]; 10 μM, 12 h (Table 4)): 27.7 ± 4.0 %; fibroblast migration activity in words ([5]; 0.1-10 μM, 12 h): high activity, similar to HB
CC[C@@H](C(C)C)[C@@H](O)[C@H](O)[C@@H](C)[C@H]1CC[C@H]2[C@@H]3COC(=O)[C@H]4C[C@H](O)[C@H](O)C[C@]4(C)[C@H]3CC[C@]12C [Compound 7, (22R,23R,24S)-2α,3α-22,23-tetrahydroxy-24-ethyl-B-homo-7-oxa-5α-cholestan-6-one] | 13.1 ± 2.4% | −14.8 ± 3.8% | 16.5 ± 0.5% | > 30 µM | 29.1 ± 3.4 % | 
CC(C)[C@H](C)[C@H](O)[C@@H](O)[C@@H](C)[C@H]1CC[C@H]2[C@@H]3COC(=O)[C@H]4C[C@@H](O)[C@H](O)C[C@]4(C)[C@H]3CC[C@]12C [Compound 8, (22S,23S,24R)-2α,3α-22,23-tetrahydroxy-24-methyl-B-homo-7-oxa-5α-cholestan-6-one] | 4.1 ± 1.7% | −5.4 ± 7.9% | 13.2 ± 1.5% | > 30 µM | 31.9 ± 5.3 % | 
CC(C)C(C)C(O)C(O)C(C)C1CCC2C3COC(=O)C4CC(O)C(O)CC4(C)C3CCC12C [Compound 9, (22R,23R,24R)-2α,3α-22,23-tetrahydroxy-24-methyl-B-homo-7-oxa-5α-cholestan-6-one] | 11.7 ± 3.9% | −6.7 ± 7.9% | 8.1 ± 1.6% | > 30 µM | 31.0 ± 2.6 % | 
PDGF |  |  |  |  |  | Scratch wound closure, % of control [6]: 64.8 ± 1.7 %
